Drawing on patent publication US20020120147A1, “Micronized torsemide” (priority 2000, published 2002), this text covers solubility in water and particle size for two molecules.

The conditions of data set [1]: background statement; cited from earlier work.
Data set [2] is described as follows: particle size after micronization in a micronizer. Type of data set: physicochemical. The following applies: pure dry torsemide micronized in a micronizer (Example 1). From the text:
Pure dry torsemide was micronized in a micronizer. The result was micronized torsemide of a particle size of less than 5 micrometer.

Consider `Cc1cccc(Nc2ccncc2S(=O)(=O)NC(=O)NC(C)C)c1` [Torsemide, 1-Isopropyl-3-[(4-m-toluidino-3-pyridyl)sulfonyl] urea], for which the solubility in water result in data set [1] is recorded as “essentially insoluble”.

For `Cc1cccc(Nc2ccncc2S(=O)(=O)NC(=O)NC(C)C)c1` [micronized torsemide, 1-Isopropyl-3-[(4-m-toluidino-3-pyridyl)sulfonyl] urea], in data set [2], the particle size entry is reported as “less than 5 micrometer”.
